According to patent US20220168304A1, “METHODS FOR TREATING CYSTIC FIBROSIS” (CHILDREN'S HOSPITAL MEDICAL CENTER, priority 2017, published 2022):

Legend:
human duodenal organoids = assay: Fluid secretion by forskolin-induced swelling (FIS) of human duodenal organoids; type: cell-based; conditions: FIG. 3; 0.1 micromolar saracatinib; forskolin 10 μM, 120 min; FSK vs no FSK significant, p value of 0.01
Description: (§1) Mouse intestinal organoids were cultured as described previously (DALTON et al., “New model of cystic fibrosis transmembrane conductance regulator proposes active channel-lik ? Inf Model (2012) Vol. 52, pp. 1842-1853). Human duodenal crypt isolation and enteroid expansion was performed as described previously (<<https://www.jove.com/video/52483/establishment-human-epithelial-enteroids-colonoids-from-whole-tissue>>) with some adaptations. Briefly, fresh biopsy is rinsed in ice-cold Dulbecco's Phosphate buffered saline without Ca^2+ and Mg^2+ (DPBS, Gibco), mounted and immersed in DPBS in a silica gel coated petri-dish using minutien pins with the mucosal side facing up.
Mucosa is gently scraped with curved forceps to remove villi and debris followed by 3-4 washes with DPBS. Crypts were dissociated using 2 mM EDTA (30 min, 4° C. with gentle shaking) followed by gentle scraping of the mucosa. The crypt suspension was filtered through a 150 μm nylon mesh twice and pelleted at 50×g, 4° C. The crypt pellet was resuspended in matrigel matrix (200 to 500 crypts/50 μl matrigel per well of a 24 well plate). […]
Fluid Secretion by forskolin-induced swelling (FIS) of human duodenal organoids (A) representative images (bar=20 micrometers) and (B) quantitation of fluid secretion.

[1] = system: mouse intestinal organoids; assay: Fluid secretion by forskolin-induced swelling (FIS) of mouse intestinal organoids; type: cell-based; conditions: FIG. 4; 0.1 micromolar saracatinib; forskolin 10 μM, 30 min; FSK vs no FSK significant, p value of 0.01
Description: as §1
Isolation of intestinal spheres and measurement of fluid secretion were performed as described previously (MOON et al., “Compartmentalized accumulation of cAMP near complexes of multidrug resistance protein 4 (MRP4) and cystic fibrosis transmembrane conductance regulator (CFTR) contributes to drug-induced diarrhea.” J Biol Chem (2015) Vol. 290, pp. 11246-11257). Day 1-4 intestinal organoids were treated with 0.1-10 μM of the test compound for 24 h before stimulation of CFTR function using forskolin (10 μM). […]
Fluid Secretion by forskolin-induced swelling (FIS) of mouse intestinal organoids (A) representative images (bar=20 micrometers) and (B) quantitation of fluid secretion.

CN1CCN(CCOc2cc(OC3CCOCC3)c3c(Nc4c(Cl)ccc5c4OCO5)ncnc3c2)CC1 [saracatinib, N-(5-chloro-1,3-benzodioxol-4-yl)-7-[2-(4-methyl-1-piperazinyl)ethoxy]-5-[(tetrahydro-2H-pyran-4-yl)oxy]-4-quinazolinamine]
Fluid secretion (forskolin-induced swelling, FIS) (human duodenal organoids): fluid secretion occurs when saracatinib is added | Fluid secretion (forskolin-induced swelling, FIS) [1]: fluid secretion occurs when saracatinib is added
